Earlier results as cited in US7947313B2, “Compositions for diabetes treatment and prophylaxis” (Ayurvedic-Life International, LLC, priority 2003, dated 2011).

What was measured:
[1] = Fletcher et al. 1999
rat chorda tympani nerve = conditions: stimuli such as glucose, sucrose, glycine and saccharine; Fletcher et al. 1999

Substance: gurmarin
- effect in humans [1]: no apparent effect
- response of the rat chorda tympani nerve to sweet taste stimuli (rat chorda tympani nerve): suppressing the response
